In patent US20150166523A1, “BRANCHED CHAIN ALKYL HETEROAROMATIC RING DERIVATIVE” (TAISHO PHARMACEUTICAL CO., LTD., priority 2012, published 2015):

Legend:
[1] = biological target: T1, orexin-2 receptor (hOX2R) (Homo sapiens, UniProt O43614); experiment: Measurement of orexin antagonistic activity (intracellular Ca2+ fluorescence, FDSS) on hOX2R; format: cell-based; conditions: CHO cells forcibly expressing hOX2R; Fluo-4AM; ligand peptide (substituted human orexin-A) 3 nM; compound preincubated 30 minutes; read-out: IC50 Value OX2
T1 construct: expressed in transfected cells; host or cells: Chinese hamster ovary (CHO) cells
T1 sequence (O43614 1-444): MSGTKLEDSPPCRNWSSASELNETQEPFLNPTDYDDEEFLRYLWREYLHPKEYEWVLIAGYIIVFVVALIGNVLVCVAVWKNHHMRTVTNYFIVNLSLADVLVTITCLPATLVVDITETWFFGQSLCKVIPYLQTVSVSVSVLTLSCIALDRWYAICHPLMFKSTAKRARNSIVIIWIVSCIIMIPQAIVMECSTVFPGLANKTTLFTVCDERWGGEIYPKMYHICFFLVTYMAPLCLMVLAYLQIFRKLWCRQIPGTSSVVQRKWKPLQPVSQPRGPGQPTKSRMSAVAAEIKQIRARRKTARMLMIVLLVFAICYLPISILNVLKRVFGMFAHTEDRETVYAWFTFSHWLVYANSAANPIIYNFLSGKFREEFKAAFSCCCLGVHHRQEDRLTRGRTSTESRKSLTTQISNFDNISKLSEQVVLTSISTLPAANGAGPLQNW
Protocol: (§1) The antagonistic activities of the test compounds on human orexin-1 receptor (hOX1R) and orexin-2 receptor (hOX2R) were measured by modifying from the method described in literature (Toshikatsu Okumura et al., Biochemical and Biophysical Research Communications, 280, 976-981, 2001). Chinese hamster ovary (CHO) cells forcibly expressing the hOX1R and hOX2R were seeded into a 96 well Black clear bottom plate (Nunc) at 20,000 cells per well, which were cultured in Ham's F-12 medium containing 0.1 mM MEM non-essential amino acids, 0.5 mg/mL G418, 10% fetal bovine serum (all by Invitrogen) for 16 hours under the conditions of 37° C., 5% CO2. After removing the medium, 100 μL of 0.5 μM Fluo-4AM ester (Dojin) in an assay buffer (25 mM HEPES (Dojin), Hank's balanced salt solution (Invitrogen), 0.1% bovine serum albumin, 2.5 mM probenecid, 200 μg/mL Amaranth (all by Sigma-Aldrich), pH 7.4) was added and the cells were incubated for 60 minutes at 37° C., 5% CO2. After removing the assay buffer containing fluo-4AM ester, the test compound was dissolved in dimethyl sulfoxide to be 10 mM and diluted with the assay buffer, 150 μL, of which was added and incubated for 30 minutes.
(§2) The reaction was measured for the fluorescence intensity of each well every second for 3 minutes using Functional Drug Screening System (FDSS; Hamamatsu Photonics K.K.), and the antagonistic activity was determined using the maximum fluorescence intensity as the indicator of intracellular Ca2+ concentration.

[2] = biological target: T2, human orexin-1 receptor (hOX1R) (Homo sapiens, UniProt O43613); experiment: Measurement of orexin antagonistic activity (intracellular Ca2+ fluorescence, FDSS) on hOX1R; format: cell-based; conditions: CHO cells forcibly expressing hOX1R; Fluo-4AM; ligand peptide (substituted human orexin-A) 300 pM; compound preincubated 30 minutes; read-out: IC50 Value OX1
T2 construct: expressed in transfected cells; host or cells: Chinese hamster ovary (CHO) cells
T2 sequence (O43613 1-425): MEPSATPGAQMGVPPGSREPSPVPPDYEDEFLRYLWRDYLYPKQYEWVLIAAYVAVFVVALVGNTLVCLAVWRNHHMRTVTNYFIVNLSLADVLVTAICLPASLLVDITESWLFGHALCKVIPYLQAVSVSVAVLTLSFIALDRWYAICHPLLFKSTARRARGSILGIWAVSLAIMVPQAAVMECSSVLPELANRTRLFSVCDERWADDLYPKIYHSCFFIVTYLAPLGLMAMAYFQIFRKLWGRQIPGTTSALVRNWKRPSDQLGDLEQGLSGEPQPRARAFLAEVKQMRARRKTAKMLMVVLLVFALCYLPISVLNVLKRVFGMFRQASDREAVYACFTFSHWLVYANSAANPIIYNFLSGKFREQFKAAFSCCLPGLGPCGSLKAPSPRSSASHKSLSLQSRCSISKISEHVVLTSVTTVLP
Protocol: as §1, §2

An IC50 [1] of 188 nM and an IC50 [2] of 8.1 nM were found for CCN(C(=O)c1ccccc1-n1nccn1)[C@@H](C)Cn1cc(-c2ccc(F)cn2)cn1 [Example 21, N-Ethyl-N-{(2S)-1-[4-(5-fluoropyridin-2-yl)-1H-pyrazol-1-yl]propan-2-yl}-2-(2H-1,2,3-triazol-2-yl)benzamide] in this work.
An IC50 [1] of 2070 nM and an IC50 [2] of 23.7 nM were found for Cc1ccc(-n2nccn2)c(C(=O)N(CCS(C)(=O)=O)[C@@H](C)Cn2cc(-c3ccc(F)cc3)nn2)c1 [Example 90, N-{(2S)-1-[4-(4-Fluorophenyl)-1H-1,2,3-triazol-1-yl]propan-2-yl}-5-methyl-N-[2-(methylsulfonyl)ethyl]-2-(2H-1,2,3-triazol-2-yl)benzamide] in this work.
An IC50 [1] of 75.6 nM and an IC50 [2] of 6.6 nM were found for CCN(C(=O)c1cc(F)ccc1-c1ncccn1)[C@@H](C)Cc1noc(-c2ccc(F)cc2)n1 [Example 53, N-Ethyl-5-fluoro-N-{(2S)-1-[5-(4-fluorophenyl)-1,2,4-oxadiazol-3-yl]propan-2-yl}-2-(pyrimidin-2-yl) benzamide] in this work.
An IC50 [1] of 427 nM and an IC50 [2] of 63.6 nM were found for CCN(C(=O)c1cc(C)ccc1-c1ncccn1)[C@@H](C)Cn1cc(-c2ccc(F)cn2)nn1 [Example 79, N-Ethyl-N-{(2S)-1-[4-(5-fluoropyridin-2-yl)-1H-1,2,3-triazol-1-yl]propan-2-y}-5-methyl-2-(pyrimidin-2-yl)benzamide] in this work.
An IC50 [1] of 13.8 nM and an IC50 [2] of 1.4 nM were found for CCN(C(=O)c1nc(C)ccc1-n1nccn1)[C@@H](C)Cn1cc(-c2ccc(F)c(F)c2)cn1 [Example 27, N-{(2S)-1-[4-(3,4-Difluorophenyl)-1H-pyrazol-1-yl]propan-2-yl}-N-ethyl-6-methyl-3-(2H-1,2,3-triazol-2-yl) pyridine-2-carboxamide] in this work.
An IC50 [1] of 580 nM and an IC50 [2] of 364 nM were found for CCN(C(=O)c1cc(F)ccc1-c1ncccn1)[C@H](C)Cn1ccc(-c2ccc(F)cc2)n1 [Example 12, N-Ethyl-5-fluoro-N-[(2R)-1-[3-(4-fluorophenyl)-1H-pyrazol-1-yl]propan-2-yl]-2-(pyrimidin-2-yl)benzamide] in this work.
An IC50 [1] of 8.4 nM and an IC50 [2] of 1.2 nM were found for Cc1ccc(-c2ncccn2)c(C(=O)N(C)[C@@H](C)Cn2ccc(-c3ccc(F)cn3)n2)c1 [Example 6, N-{(2S)-1-[3-(5-Fluoropyridin-2-yl)-1H-pyrazol-1-yl]propan-2-yl}-N,5-dimethyl-2-(pyrimidin-2-yl) benzamide] in this work.
An IC50 [1] of 21.8 nM and an IC50 [2] of 1.3 nM were found for CCN(C(=O)c1cc(C)ccc1-n1nccn1)[C@@H](C)Cn1cc(-c2ccc(F)cc2)nn1 [Example 71, N-Ethyl-N-{(2S)-1-[4-(4-fluorophenyl)-1H-1,2,3-triazol-1-yl]propan-2-yl}-5-methyl-2-(2H-1,2,3-triazol-2-yl)benzamide] in this work.
An IC50 [1] of 9.4 nM and an IC50 [2] of 1.4 nM were found for CCN(C(=O)c1cc(C)ccc1-c1ncccn1)[C@@H](C)Cc1noc(-c2ccc(F)cc2)n1 [Example 55, N-Ethyl-N-{(2S)-1-[5-(4-fluorophenyl)-1,2,4-oxadiazol-3-yl]propan-2-yl}-5-methyl-2-(pyrimidin-2-yl)benzamide] in this work.
An IC50 [1] of 20.8 nM and an IC50 [2] of 11.9 nM were found for C[C@@H](Cn1cc(-c2ccc(F)c(F)c2)cn1)N(C)C(=O)c1cc(F)ccc1-c1ncccn1 [Example 33, N-{(2S)-1-[4-(3,4-Difluorophenyl)-1H-pyrazol-1-yl]propan-2-yl}-5-fluoro-N-methyl-2-(pyrimidin-2-yl)benzamide] in this work.
An IC50 [1] of 7810 nM and an IC50 [2] of 687 nM were found for CCN(C(=O)c1nc(C)ccc1-c1ncccn1)[C@@H](C)Cn1cc(-c2ccc(F)cn2)nn1 [Example 80, N-Ethyl-N-{(2S)-1-[4-(5-fluoropyridin-2-yl)-1H-1,2,3-triazol-1-yl]propan-2-yl}-6-methyl-3-(pyrimidin-2-yl)pyridine-2-carboxamide] in this work.
An IC50 [1] of 1450 nM and an IC50 [2] of 48.8 nM were found for CCN(C(=O)c1nc(C)ccc1-n1nccn1)[C@@H](C)Cn1cc(-c2ccc(F)cn2)nn1 [Example 77, N-Ethyl-N-{(2S)-1-[4-(5-fluoropyridin-2-yl)-1H-1,2,3-triazol-1-yl]propan-2-yl}-6-methyl-3-(2H-1,2,3-triazol-2-yl)pyridine-2-carboxamide] in this work.
An IC50 [1] of 13.6 nM and an IC50 [2] of 3.5 nM were found for Cc1ccc(-n2nccn2)c(C(=O)N(CCO)[C@@H](C)Cn2cc(-c3ccc(F)cc3)cn2)c1 [Example 43, N-{(2S)-1-[4-(4-Fluorophenyl)-1H-pyrazol-1-yl]propan-2-yl}-N-(2-hydroxyethyl)-5-methyl-2-(2H-1,2,3-triazol-2-yl)benzamide] in this work.
An IC50 [1] of 16.8 nM and an IC50 [2] of 0.8 nM were found for CCN(C(=O)c1cc(F)ccc1-n1nccn1)[C@@H](C)Cc1noc(-c2ccc(F)cc2)n1 [Example 50, N-Ethyl-5-fluoro-N-{(2S)-1-[5-(4-fluorophenyl)-1,2,4-oxadiazol-3-yl]propan-2-yl}-2-(2H-1,2,3-triazol-2-yl) benzamide] in this work.
An IC50 [1] of 376 nM and an IC50 [2] of 9.2 nM were found for CCN(C(=O)c1nc(C)ccc1-c1ncccn1)[C@@H](C)Cc1noc(-c2ccc(F)cc2)n1 [Example 52, N-Ethyl-N-{(2S)-1-[5-(4-fluorophenyl)-1,2,4-oxadiazol-3-yl]propan-2-yl}-6-methyl-3-(pyrimidin-2-yl)pyridine-2-carboxamide] in this work.
An IC50 [1] of 214 nM and an IC50 [2] of 6.8 nM were found for CCN(C(=O)c1cc(F)ccc1-n1nccn1)[C@@H](C)Cn1cc(-c2ccc(F)cn2)cn1 [Example 36, N-Ethyl-5-fluoro-N-{(2S)-1-[4-(5-fluoropyridin-2-yl)-1H-pyrazol-1-yl]propan-2-yl}-2-(2H-1,2,3-triazol-2-yl) benzamide] in this work.
An IC50 [1] of 55.9 nM and an IC50 [2] of 3.4 nM were found for C[C@@H](Cn1ccc(-c2ccc(F)cn2)n1)N(C)C(=O)c1ccccc1-n1nccn1 [Example 20, N-{(2S)-1-[3-(5-Fluoropyridin-2-yl)-1H-pyrazol-1-yl]propan-2-yl}-N-methyl-2-(2H-1,2,3-triazol-2-yl)benzamide] in this work.
An IC50 [1] of 75.5 nM and an IC50 [2] of 3.3 nM were found for Cc1ccc(-n2nccn2)c(C(=O)N(C)[C@@H](C)Cc2noc(-c3ccc(F)cn3)n2)c1 [Example 45, N-{(2S)-1-[5-(5-Fluoropyridin-2-yl)-1,2,4-oxadiazol-3-yl]propan-2-yl}-N,5-dimethyl-2-(2H-1,2,3-triazol-2-yl)benzamide] in this work.
An IC50 [1] of 64.6 nM and an IC50 [2] of 2.5 nM were found for CCN(C(=O)c1cc(C)ccc1-n1nccn1)[C@@H](C)Cn1cc(-c2ccc(Cl)cc2)nn1 [Example 92, N-{(2S)-1-[4-(4-Chlorophenyl)-1H-1,2,3-triazol-1-yl]propan-2-yl}-N-ethyl-5-methyl-2-(2H-1,2,3-triazol-2-yl)benzamide] in this work.
An IC50 [1] of 144 nM and an IC50 [2] of 1.3 nM were found for CCN(C(=O)c1nc(C)ccc1-n1nccn1)[C@@H](C)Cn1nnc(-c2ccc(F)cc2)n1 [Example 65, N-Ethyl-N-{(2S)-1-[5-(4-fluorophenyl)-2H-tetrazol-2-yl]propan-2-yl}-6-methyl-3-(2H-1,2,3-triazol-2-yl)pyridine-2-carboxamide] in this work.
An IC50 [2] of 21.6 nM was found for Cc1ccc(-c2ncccn2)c(C(=O)N(C)[C@@H](C)Cc2noc(-c3ccc(F)cn3)n2)c1 [Example 46, N-{(2S)-1-[5-(5-Fluoropyridin-2-yl)-1,2,4-oxadiazol-3-yl]propan-2-yl}-N,5-dimethyl-2-(pyrimidin-2-yl)benzamide] in this work.
An IC50 [1] of 75.5 nM was found for C[C@@H](Cn1ccc(-c2ccc(F)cn2)n1)N(C)C(=O)c1cc(F)ccc1-c1ncccn1 [Example 5, 5-Fluoro-N-{(2S)-1-[3-(5-fluoropyridin-2-yl)-1H-pyrazol-1-yl]propan-2-yl}-N-methyl-2-(pyrimidin-2-yl)benzamide] in this work.
